Like-named read-outs stand apart in the source and are kept apart here.
Assays:
SW480 pERK = experiment: Phospho-ERK inhibition, AlphaLISA SureFire Ultra p-ERK 1/2; type: cell-based, human; settings: for SW480 pERK, value in parentheses, % inhibition: % Ymin of pERK IC50 curve; for SW480 (Ymin %): lowest value of the pERK IC50 curve
Method in brief: (§1)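 Cells plated in RPMI-1640 with 5% FBS, held overnight, then exposed 1 h to ten-point compound dilutions (top 30 or 10 μM down to 0.33 nM; 0.5% DMSO). Lysates read for p-ERK1/2 (Thr202/Tyr204) by AlphaLISA; % inhibition relative to DMSO after subtracting a 1 μM trametinib background; IC50 from four-parameter fit.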

HCT116 pERK = experiment: as above; type: cell-based, human; settings: for HCT116 pERK, value in parentheses, % inhibition: % Ymin of pERK IC50 curve; for HCT116 (Ymin %): lowest value of the pERK IC50 curve
Method in brief: as §1

[1] = Homo sapiens, SW480, Table D-2, read-out: SW480 pERK IC50
[2] = Homo sapiens, HCT-116, Table D-1
[3] = Table 3, 1 h treatment, read-out: SW480 PERK IC50
[4] = Table D-2, read-out: SW480 pERK IC50

| SMILES | IC50 (SW480 pERK; [1]) [µM] | SW480 pERK, value in parentheses, % inhibition (SW480 pERK; Table D-2) | IC50 (HCT116 pERK; [2]) [µM] | HCT116 pERK, value in parentheses, % inhibition (HCT116 pERK; Table D-1) | IC50 (SW480 pERK; [3]) [µM] | SW480 (Ymin %) (SW480 pERK; Table 3) [%] | IC50 (HCT116 pERK; Table 3, 1 h treatment) [µM] | HCT116 (Ymin %) (HCT116 pERK; Table 3) | IC50 (SW480 pERK; [4]) [µM] | IC50 (HCT116 pERK; Table D-1) [µM] | IC50 (SW480 pERK; Homo sapiens, SW480, Table 3, 1 h treatment, read-out: SW480 PERK IC50) [µM] | IC50 (HCT116 pERK; Homo sapiens, HCT-116, Table 3, 1 h treatment) [µM] |
| --- | --- | --- | --- | --- | --- | --- | --- | --- | --- | --- | --- | --- |
| Cc1ccc2c(Nc3cccc(Cl)c3F)nccc2c1NC(=O)c1csc2c(N)ncnc12 [Belvarafenib, reference compound] | 0.03 to 0.3 | (−100) % | 0.03 to 0.3 | (−46) % |  |  |  |  |  |  |  |  |
| Nc1cccc2c1ncn2-c1ncc2ncnc(Nc3c(F)ccc(NS(=O)(=O)c4cccc(Cl)c4Cl)c3F)c2n1 [Example 80] |  |  |  |  | < 0.5 | −2 | < 0.5 | −7% |  |  |  |  |
| Cc1c(F)cccc1S(=O)(=O)Nc1ccc(F)c(Nc2ncnc3cnc(-n4cc(C(=O)N(C)Cc5ccncc5)c5ccccc54)nc23)c1F [Example 98] |  | (−1) % |  | (−6.0) % | < 0.5 | −1 |  | (−6.0) % | 0.03 to 0.3 | 0.03 to 0.3 |  |  |
| COc1ccc(S(=O)(=O)Nc2ccc(F)c(Nc3ncnc4cnc(-n5cnc6c(N)cccc65)nc34)c2F)c(C)c1Cl [Example 112] |  | (−7) % |  | (−0.8) % | < 0.5 | −7 | 0.5 to 1 | −0.8% | 0.03 to 0.3 | > 0.3 |  |  |
| Cc1c(F)cccc1S(=O)(=O)Nc1ccc(F)c(Nc2ncnc3cnc(-n4cnc5c(-c6cccnc6)cccc54)nc23)c1F [Example 114] | 0.03 to 0.3 | (1) % | > 0.3 | (−4.9) % |  | 2 |  |  |  |  | < 0.5 | < 0.5 |
| O=S(=O)(Nc1ccc(F)c(Nc2ncnc3cnc(-n4cnc5c(N6CCC7(CCCO7)CC6)cccc54)nc23)c1F)c1cccc(Cl)c1Cl [Example 129] |  | (3) % |  | (−8) % | < 0.5 | 3 | < 0.5 | −8% | 0.03 to 0.3 | 0.03 to 0.3 |  |  |

Source: patent US20240239801A1, “PYRIMIDO[5,4,D]PYRIMIDINE COMPOUNDS, COMPOSITIONS COMPRISING THEM AND USES THEREOF” (Université de Montréal, priority 2021, published 2024)
